Source: patent US12485121B2, “Antiviral agents for the treatment and prevention of HIV infection” (Pharmasyntez, Joint Stock Company, priority 2020, dated 2025)

Test system: HIV-1 subtype A strain 12RU 69831
Experiment: Inhibition of HIV-1 reproduction / protection of infected MT-4 cells (living cell concentration, p24 production)
Assay type: cell-based
Conditions: Human immunodeficiency virus 1, MT4, MT-4 cells infected with HIV-1 at a constant virus dose of 300 CCID50; read-out: Activity against HIV-1 12RU 69831 strain (subtype A)
Protocol: Evaluation of HIV reproduction inhibition/protection of human cells by anti-HIV products of the present invention was conducted by measuring change in living cells concentration in experimental wells with MT-4 cells infected with HIV-1, as well as by the production of viral protein p24 with adding different concentrations of compounds according to the present invention. Antiviral activity of products against HIV-1 subtype A strain 12RU 69831 was determined, when the cell culture was infected with a constant dose of virus, corresponding to 300 CCID50.

Row | Compound | IC50 [µM]
1 | Cc1cc(C#N)cc(C)c1Oc1nc(Nc2ccc(C#N)cc2)nc2c1CCN(C(=O)c1cccnc1)CC2 [BB0274012, 4-((2-((4-Cyanophenyl)amino)-7-nicotinoyl-6,7,8,9-tetrahydro-5H-pyrimido[4,5-d]azepine-4-yl)oxy)-3,5-dimethylbenzonitrile] | 5.81
2 | Cc1cc(C#N)cc(C)c1Oc1nc(Nc2ccc(C#N)cc2)nc2c1CN(C(=O)[C@H](C)NC(=O)OC(C)(C)C)CC2 [BB0274101, (S)-Tert-butyl (1-(4-(4-cyano-2,6-dimethylphenoxy)-2-((4-cyanophenyl)amino)-7,8-dihydropyrido[4,3-d]pyrimidine-6(5H)-yl)-1-oxopropane-2-yl)carbamate] | 8.8
3 | Cc1cc(C#N)cc(C)c1Oc1nc(Nc2ccc(C#N)cc2)nc2c1CN(C(=O)[C@@H](CO)NC(=O)OC(C)(C)C)CC2 [BB0274119, (R)-Tert-butyl (1-(4-(4-cyano-2,6-dimethylphenoxy)-2-((4-cyanophenyl)amino)-7,8-dihydropyrido[4,3-d]pyrimidine-6(5H)-yl)-3-hydroxy-1-oxopropane-2-yl)carbamate] | 103
4 | Cc1cc(C=O)cc(C)c1Oc1nc(Nc2ccc(C#N)cc2)nc2c1CCN(C)C2 [BB0273775, 4-((4-(4-Formyl-2,6-dimethylphenoxy)-7-methyl-5,6,7,8-tetrahydro[3,4-d]pyrimidine-2-yl)amino)benzonitrile] | 295
5 | Cc1cc(C#N)cc(C)c1Oc1nc(Nc2ccc(C#N)cc2)nc2c1CCN(C1CCNCC1)CC2 [BB0274028, 4-((2-((4-Cyanophenyl)amino)-7-(piperidine-4-yl)-6,7,8,9-tetrahydro-5H-pyrimido[4,5-d]azepine-4-yl)oxy)-3,5-dimethylbenzonitrile] | 16.2
6 | Cc1cc(C#N)cc(C)c1Oc1nc(Nc2ccc(C#N)cc2)nc2c1CN(C(=O)[C@@H](N)Cc1ccccc1)CC2 [BB0274111, (S)-4-((6-(2-Amino-3-phenylpropanoyl)-2-((4-cyanophenyl)amino)-5,6,7,8-tetrahydropyrido[4,3-d]pyrimidine-4-yl)oxy)-3,5-dimethylbenzonitrile] | 533
7 | Cc1cc(C#N)cc(C)c1Oc1nc(Nc2ccc(C#N)cc2)nc2c1CN(C(=O)OC(C)(C)C)CC2 [BB0273961, Tert-butyl 4-(4-cyano-2,6-dimethylphenoxy)-2-((4-cyanophenyl)amino)-7,8-dihydropyrido[4,3-d]pyrimidine-6(5H)-carboxylate] | 42.3
8 | Cc1ccc(CN2CCc3nc(Nc4ccc(C#N)cc4)nc(Oc4c(C)cc(C#N)cc4C)c3CC2)o1 [BB0274073] | 57.4
9 | Cc1cc(C#N)cc(C)c1Oc1nc(Nc2ccc(C#N)cc2)nc2c1CN(C(=O)C(Cc1cnn(C(=O)OC(C)(C)C)c1)NC(=O)OC(C)(C)C)CC2 (centres unmarked) [BB0274122, Tert-butyl 4-(2-((tert-butoxycarbonyl)amino)-3-(4-(4-cyano-2,6-dimethylphenoxy)-2-((4-cyanophenyl)amino)-7,8-dihydropyrido[4,3-d]pyrimidine-6(5H)-yl)-3-oxopropyl)-1H-pyrazole-1-carboxylate] | 18.9
10 | Cc1cc(C#N)cc(C)c1Oc1nc(Nc2ccc(C#N)cc2)nc2c1CCN(Cc1ccc(O)cc1)CC2 [BB0274075, 4-((2-((4-Cyanophenyl)amino)-7-(4-hydroxybenzyl)-6,7,8,9-tetrahydro-5H-pyrimido[4,5-d]azepine-4-yl)oxy)-3,5-dimethylbenzonitrile] | 5.8
11 | Cc1cc(C#N)cc(C)c1Oc1nc(Nc2ccc(C#N)cc2)nc2c1CCN(Cc1ccccn1)CC2 [BB0274014, 4-((2-((4-Cyanophenyl)amino)-7-(pyridine-2-ylmethyl)-6,7,8,9-tetrahydro-5H-pyrimido[4,5-d]azepine-4-yl)oxy)-3,5-dimethylbenzonitrile] | 5.98
12 | CSCCC(NC(=O)OC(C)(C)C)C(=O)N1CCc2nc(Nc3ccc(C#N)cc3)nc(Oc3c(C)cc(C#N)cc3C)c2C1 (centres unmarked) [BB0274120, Tert-butyl (1-(4-(4-cyano-2,6-dimethylphenoxy)-2-((4-cyanophenyl)amino)-7,8-dihydropyrido[4,3-d]pyrimidine-6(5H)-yl)-4-(methylthio)-1-oxobutane-2-yl)carbamate] | 108
13 | Cc1cc(C#N)cc(C)c1Oc1nc(Nc2ccc(C#N)cc2)nc2c1CN(C(=O)[C@H](Cc1ccccc1)NC(=O)OC(C)(C)C)CC2 [BB0274103, (S)-Tert-butyl (1-(4-(4-cyano-2,6-dimethylphenoxy)-2-((4-cyanophenyl)amino)-7,8-dihydropyrido[4,3-d]pyrimidine-6(5H)-yl)-1-oxo-3-phenylpropane-2-yl)carbamate] | 228
14 | Cc1cc(C#N)cc(C)c1OC1=NC(Nc2ccc(C#N)cc2)=NC2CCN(C(=O)NC3CCOCC3)CC12 (centres unmarked) [BB0274337, 4-(4-Cyano-2,6-dimethylphenoxy)-2-[(4-cyanophenyl)amino]-N-(oxan-4-yl)-4aH,5H,6H,7H,8H,8aH-pyrido [4,3-d]pyrimidine-6-carboxamide] | 205
15 | Cc1cc(C#N)cc(C)c1Oc1nc(Nc2ccc(C#N)cc2)nc2c1CCN(CCC(=O)O)CC2 [BB0274143, 3-(4-(4-Cyano-2,6-dimethylphenoxy)-2-((4-cyanophenyl)amino)-8,9-dihydro-5H-pyrimido[4,5-d]azepine-7(6H)-yl)propanoic acid] | 0.71
16 | Cc1cc(C#N)cc(C)c1Oc1nc(Nc2ccc(C#N)cc2)nc2c1CNCC2 [BB0273963, 4-((2-((4-Cyanophenyl)amino)-5,6,7,8-tetrahydropyrido[4,3-d]pyrimidine-4-yl)oxy)-3,5-dimethylbenzonitrile] | 7.56
17 | Cc1cc(C#N)cc(C)c1Oc1nc(Nc2ccc(C#N)cc2)nc2c1CCN(S(C)(=O)=O)CC2 [BB0274135, 4-((2-((4-Cyanophenyl)amino)-7-(methylsulfonyl)-6,7,8,9-tetrahydro-5H-pyrimido[4,5-d]azepine-4-yl)oxy)-3,5-dimethylbenzonitrile] | 6.13
18 | Cc1cc(C#N)cc(C)c1Oc1nc(Nc2ccc(C#N)cc2)nc2c1CCN(C(=O)C1CCN(C(=O)OC(C)(C)C)CC1)CC2 [BB0274025, Tert-butyl 4-(4-(4-cyano-2,6-dimethylphenoxy)-2-((4-cyanophenyl)amino)-6,7,8,9-tetrahydro-5H-pyrimido[4,5-d]asein-7-carbonyl)piperidine-1-carboxylate] | 3220
19 | CC(=O)N1CCc2nc(Nc3ccc(C#N)cc3)nc(Oc3c(C)cc(C#N)cc3C)c2CC1 [BB0274145, 4-((7-Acetyl-2-((4-cyanophenyl)amino)-6,7,8,9-tetrahydro-5H-pyrimido[4,5-d]azepine-4-yl)oxy)-3,5-dimethylbenzonitrile] | 1.69

Compounds with a lower IC50, results first:

Row | IC50 [µM] | Compound
20 | 0.00676 | Cc1cc(C#N)cc(C)c1Oc1nc(Nc2ccc(C#N)cc2)nc2c1CN(Cc1cccnc1)CC2 [BB0274138, 4-((2-((4-Cyanophenyl)amino)-6-(pyridine-3-ylmethyl)-5,6,7,8-tetrahydropyrido[4,3-d]pyrimidine-4-yl)oxy)-3,5-dimethylbenzonitrile]
21 | 0.032 | Cc1cc(C#N)cc(C)c1Oc1nc(Nc2ccc(C#N)cc2)nc2c1CN(C(=O)C(N)Cc1cnc[nH]1)CC2 (centres unmarked) [BB0275622, 4-({6-[2-Amino-3-(1H-imidazole-5-yl)propanoyl]-2-[(4-cyanophenyl)amino]-5H,6H,7H,8H-pyrido[4,3-d]pyrimidine-4-yl}oxy)-3,5-dimethylbenzonitrile]
22 | 0.324 | Cc1cc(C#N)cc(C)c1Oc1nc(Nc2ccc(C#N)cc2)nc2c1CCN(CCN1CCOCC1)CC2 [BB0274118, 4-((2-((4-Cyanophenyl)amino)-7-(2-morpholineethyl)-6,7,8,9-tetrahydro-5H-pyrimido[4,5-d]azepine-4-yl)oxy)-3,5-dimethylbenzonitrile]
23 | 0.046 | Cc1cc(C#N)cc(C)c1Oc1nc(Nc2ccc(C#N)cc2)nc2c1CN(C(=O)C1CCCN1)CC2 (centres unmarked) [BB0274098, 4-((2-((4-Cyanophenyl)amino)-6-(pyrrolidine-2-carbonyl)-5,6,7,8-tetrahydropyrido[4,3-d]pyrimidine-4-yl)oxy)-3,5-dimethylbenzonitrile]
24 | 0.062 | Cc1cc(C#N)cc(C)c1Oc1nc(Nc2ccc(C#N)cc2)nc2c1CCN(C(=O)c1ccccn1)CC2 [BB0274010, 4-((2-((4-Cyanophenyl)amino)-7-picolynoyl-6,7,8,9-tetrahydro-5H-pyrimido[4,5-d]azepine-4-yl)oxy)-3,5-dimethylbenzonitrile]
25 | 0.667 | Cc1cc(C#N)cc(C)c1Oc1nc(Nc2ccc(C#N)cc2)nc2c1CN(C(=O)[C@@H](N)CCCCN)CC2 [BB0274131, (S)-4-((2-((4-Cyanophenyl)amino)-6-(2,6-diaminohexanoyl)-5,6,7,8-tetrahydropyrido[4,3-d]pyrimidine-4-yl)oxy)-3,5-dimethylbenzonitrile]
26 | 0.0488 | Cc1cc(C#N)cc(C)c1Oc1nc(Nc2ccc(C#N)cc2)nc2c1CCN(C(=O)Cn1ccnc1C)CC2 [BB0274236, 4-((2-((4-Cyanophenyl)amino)-7-(2-(methyl-1H-imidazole-1-yl)acetyl)-6,7,8,9-tetrahydro-5H-pyrimido[4,5-d]azepine-4-yl)oxy)-3,5-dimethylbenzonitrile]
27 | 0.00341 | Cc1cc(C#N)cc(C)c1Oc1nc(Nc2ccc(C#N)cc2)nc2c1CN(C(=O)[C@H](C)N)CC2 [BB0274102, (S)-4-((6-(2-Aminopropanoyl)-2-((4-cyanophenyl)amino)-5,6,7,8-tetrahydropyrido[4,3-d]pyrimidine-4-yl)oxy)-3,5-dimethylbenzonitrile]
28 | 0.414 | COCC(C)N1CCc2nc(Nc3ccc(C#N)cc3)nc(Oc3c(C)cc(C#N)cc3C)c2CC1 (centres unmarked) [BB0274080]
29 | 0.0102 | Cc1cc(C#N)cc(C)c1Oc1nc(Nc2ccc(C#N)cc2)nc2c1CCNCC2 [BB0274021, 4-((2-((4-Cyanophenyl)amino)-6,7,8,9-tetrahydro-5H-pyrimido[4,5-d]azepine-4-yl)oxy)-3,5-dimethylbenzonitrile]
